Source: US6448269B1 (Eli Lilly and Company, priority 1993, dated 2002)
Counter-ions that a name gives are not always drawn.

Tests used:
GPIIb-IIIa = target: T1, GPIIb-IIIa (Homo sapiens, UniProt P05106+P08514); experiment: ELISA IIb-IIIa assay (fibrinogen binding to immobilized GPIIb-IIIa); conditions: purified platelet GPIIb-IIIa receptor coated on ELISA plates; biotin-labeled fibrinogen 10 nM, 3 hours at 25° C.
T1 construct: Purified platelet GPIIb-IIIa receptor was prepared as described by Fitzgerald; from tissue; host or cells: platelets
T1 sequence (P08514 32-887 limits assumed): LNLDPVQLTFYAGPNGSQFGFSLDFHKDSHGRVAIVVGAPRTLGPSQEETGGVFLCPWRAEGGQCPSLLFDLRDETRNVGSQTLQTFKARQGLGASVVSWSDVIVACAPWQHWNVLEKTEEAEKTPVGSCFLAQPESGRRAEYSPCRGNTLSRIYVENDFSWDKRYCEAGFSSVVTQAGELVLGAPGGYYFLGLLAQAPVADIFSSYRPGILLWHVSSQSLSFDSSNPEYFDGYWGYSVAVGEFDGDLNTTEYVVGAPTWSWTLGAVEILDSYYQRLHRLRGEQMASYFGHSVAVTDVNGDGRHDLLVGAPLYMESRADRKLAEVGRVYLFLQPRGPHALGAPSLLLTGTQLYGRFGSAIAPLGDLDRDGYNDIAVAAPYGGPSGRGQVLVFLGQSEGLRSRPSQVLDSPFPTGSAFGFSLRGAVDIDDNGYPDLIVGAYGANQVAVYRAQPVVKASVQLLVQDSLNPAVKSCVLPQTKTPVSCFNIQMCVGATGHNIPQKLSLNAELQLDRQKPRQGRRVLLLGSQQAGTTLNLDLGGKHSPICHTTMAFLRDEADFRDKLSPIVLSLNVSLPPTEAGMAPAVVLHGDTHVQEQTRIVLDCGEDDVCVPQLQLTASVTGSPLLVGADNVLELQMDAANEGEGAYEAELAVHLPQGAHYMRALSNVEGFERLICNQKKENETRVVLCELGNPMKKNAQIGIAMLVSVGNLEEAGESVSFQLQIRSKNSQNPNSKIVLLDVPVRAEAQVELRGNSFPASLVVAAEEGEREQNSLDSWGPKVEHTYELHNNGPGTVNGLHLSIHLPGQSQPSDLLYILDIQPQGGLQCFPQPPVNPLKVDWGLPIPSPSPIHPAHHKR
T1 sequence (P05106 27-788): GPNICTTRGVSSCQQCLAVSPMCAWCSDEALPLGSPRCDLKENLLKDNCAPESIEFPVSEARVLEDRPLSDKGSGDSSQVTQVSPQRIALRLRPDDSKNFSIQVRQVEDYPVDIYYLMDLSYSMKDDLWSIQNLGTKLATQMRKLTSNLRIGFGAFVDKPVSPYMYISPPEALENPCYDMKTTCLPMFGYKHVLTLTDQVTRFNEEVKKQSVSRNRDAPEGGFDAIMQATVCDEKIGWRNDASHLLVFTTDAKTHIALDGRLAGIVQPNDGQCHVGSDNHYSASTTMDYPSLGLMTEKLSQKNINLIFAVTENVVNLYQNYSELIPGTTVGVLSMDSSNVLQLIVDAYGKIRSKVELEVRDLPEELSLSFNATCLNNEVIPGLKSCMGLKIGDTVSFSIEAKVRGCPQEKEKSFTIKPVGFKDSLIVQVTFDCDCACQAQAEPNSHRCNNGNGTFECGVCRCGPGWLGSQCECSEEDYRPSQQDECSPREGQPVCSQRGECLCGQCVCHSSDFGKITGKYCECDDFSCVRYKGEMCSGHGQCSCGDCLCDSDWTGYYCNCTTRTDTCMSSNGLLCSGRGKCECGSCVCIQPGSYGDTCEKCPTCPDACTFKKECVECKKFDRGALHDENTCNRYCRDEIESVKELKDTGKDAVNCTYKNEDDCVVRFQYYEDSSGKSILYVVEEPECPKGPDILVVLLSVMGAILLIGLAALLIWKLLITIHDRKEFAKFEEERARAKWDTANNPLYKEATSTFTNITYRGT
Procedure: In the following assay, GPIIb-IIIa is prepared in purified form, by a method such as described by Fitzgerald, L. A., et al., Anal Biochem (1985) 151:169-177, (the disclosure of which is incorporated herein by reference). GPIIb-IIIa is coated onto microtiter plates. The coated support is then contacted with fibrinogen and with the test material (e.g., compounds of Formula I) and incubated for a sufficient time to permit maximal binding of fibrinogen to the immobilized GPIIb-IIIa. Fibrinogen is typically provided at a concentration of about 5-50 nM and the test material can, if desired, be added at a series of dilution. Typical incubations are 2 to 4 hours at 25° C., the time and temperature being interdependent.
After incubation, the solution containing the fibrinogen and test material is removed and the level of binding of fibrinogen measured by quantitating bound fibrinogen to GPIIb-IIIa. Any suitable means of detection may be used, but it is convenient to employ labeled fibrinogen, for example using biotinylated labels. Such methods are well known in the art.
Purified platelet GPIIb-IIIa receptor was prepared as described by Fitzgerald, L. A., et al., Anal Biochem (1985) 151:169-177 (1985). Vitronectin receptor was prepared as described by Smith, J. W., J. Biol Chem (1988) 263:18726-18731. After purification, the receptors were stored in 0.1% Triton X-100 at 0.1-1.0 mg/ml.
The receptors were coated to the wells of 96-well flat-bottom ELISA plates (Linbro EIA-Plus microtiter plate, Flow Laboratories) after diluting 1:200 with a solution of 20 mM Tris-HCl, 150 mM NaCl, 1 mM CaCl2, pH 7.4, to reduce the Triton X-100 concentration to below its critical micellar concentration and adding an aliquot of 100 ul to each well. The wells were all allowed to incubate overnight at 4° C., and then aspirated to dryness. Additional sites were blocked by the addition of bovine serum albumin (BSA) at 35 mg/ml in the above buffer for 2 hours at 30° C. to prevent nonspecific binding. The wells were then washed once with binding buffer ([…] Tris-HCl, 100 mM NaCl 2 mM CaCl2, 1 mg/ml BSA).
The corresponding ligands (fibrinogen, von Willebrand Factor, or vitronectin) were conjugated to biotin using commercially available reagents and standard protocols. The labeled ligands were added to the receptor-coated wells at final concentration of 10 nM (100 ul/well) and incubated for 3 hours at 25° C. in the presence or absence of the test samples. After incubation, the wells are aspirated to dryness and bound ligand is quantitated.
The bound protein is detected by the addition of antibiotin antibody conjugated to alkaline phosphatase followed by addition of substrate (p-nitrophenyl phosphate), and determination of the optical density of each well at […]. Decreased color development is observed in wells incubated with test samples which inhibit binding of ligand to receptor.

[1] = tested on: human platelet-rich plasma; experiment: Platelet aggregation assay (Aggregation-Human PRP/ADP); assay type: cell-based; conditions: 1 min; human platelet-rich plasma incubated with compound 1 minute at 37° C.; ADP-induced aggregation; read-out: Agg: Human PRP/ADP IC50uM
Procedure: Platelet-rich plasma was prepared from healthy human volunteers for use in determining inhibition of platelet aggregation by the compounds.
Platelet-rich plasma was prepared at room temperature by centrifugation of the citrated whole blood at 100×g for 12 minutes. The platelet rich plasma contained approximately 200-400,000 platelets/μl.
Platelet-poor plasma was prepared by centrifugation of citrated whole blood at 12,000×g for 2 minutes.
Platelet aggregation was assayed in a 4-channel platelet aggregation profiler (PAP-4, Biodata, Hatboro, Pa.) according to the manufacturers directions. Inhibition of platelet aggregation was studied by adding varying amounts of […] to stirred human platelet-rich plasma. Specifically, the human platelet-rich plasma was incubated with the compound being tested for 1 minute at 37° C. prior to the addition of a variety of aggregating agents most often ADP 5 μM, but also 1 μg/ml collagen, 1 μM U46619 and 0.3 μM platelet activating factor.

Row | SMILES | IC50 (GPIIb-IIIa) | IC50 [1]
1 | CCOC(=O)CCC1(C)CCc2cc(NC(=O)c3ccc(C(=N)N)cc3)ccc2O1 (racemic) [Example 50, Ethyl rac-3-(6-(N-(4-(Aminoiminomethyl)benzoyl)amino)-3,4-dihydro-2-methyl-2H-1-benzopyran-2-yl)propanoate Hydrochloride] | 3930 nM | 100 µM
2 | CC1(CCC(=O)O)C=Cc2cc(OCc3ccc(C(=N)N)cc3)ccc2O1 (racemic) [Example 53, rac-3-(6-(4-(Aminoiminomethyl)phenylmethoxy)-2-methyl-2H-1-benzopyran-2-yl)propanoic Acid Hydrochloride] | 720 nM | 21 µM
3 | N=C(N)CCCCCOc1ccc2c(c1)CCC(CC(=O)O)O2 (racemic) [Example 55, rac-(6-(5-(Aminoiminomethyl)pentoxy)-3,4-dihydro-2H-1-benzopyran-2-yl)acetic Acid Trifluoroacetate] | 3460 nM | > 100 µM
4 | CC1(CCC(=O)O)CCc2cc(NC(=O)c3ccc(C(=N)N)cc3)ccc2O1 (racemic) [Example 56, rac-3-(6-(N-(4-(Aminoiminomethyl)benzoyl)amino)-3,4-dihydro-2-methyl-2H-1-benzopyran-2-yl)propanoic Acid] | 140 nM | 0.9 µM
5 | CCOC(=O)CC1CCc2cc(NC(=O)c3ccc(C(=N)NC)cc3)ccc2O1 (racemic) [Example 57, Hydrochloride] | > 10000 nM | 0.66 µM
6 | CNC(=N)c1ccc(C(=O)Nc2ccc3c(c2)CCC(CC(=O)O)O3)cc1 (racemic) [Example 58, rac-(3,4-Dihydro-6-(N-(4-((methylamino)iminomethyl)benzoyl)amino)-2H-1-benzopyran-2-yl)acetic Acid] | 33.4 nM | 0.28 µM
7 | CC1(CCCCCCCCC(=O)O)C=Cc2cc(C(=N)N)ccc2O1 (racemic) [Example 60, rac-9-(6-Aminoiminomethyl-2-methyl-2H-1-benzopyran-2-yl)nonanoic Acid] | 1800 nM | > 10 µM
8 | O=C(O)CC1CCc2cc(OCCC3CCNCC3)ccc2O1 (racemic) [Example 61, rac-(3,4-Dihydro-6-(2-(piperidin-4-yl)ethoxy)-2H-1-benzopyran-2-yl)acetic Acid Trifluoroacetate] | > 1000 nM | 100 µM
9 | N=C(N)c1ccc(C(=O)Nc2ccc3c(c2)CCC(CC(=O)O)C3=O)c(Cl)c1 (racemic) [Example 63, rac-(6-(N-(4-Aminoiminomethyl-2-chlorobenzoyl)amino)-1-oxo-1,2,3,4-tetrahydronaphthalen-2-yl)acetic Acid] | 9.4 nM | 0.092 µM
10 | CCOC(=O)CC1CCc2cc(NC(=O)c3ccc(NC(=N)N)cc3)ccc2O1 (racemic) [Example 64, Ethyl rac-(6-(N-(4-((Aminoiminomethyl)amino)benzoyl)amino)-3,4-dihydro-2H-1-benzopyran-2-yl)acetate] | 800 nM | 11 µM
11 | N=C(N)Nc1ccc(C(=O)Nc2ccc3c(c2)CCC(CC(=O)O)O3)cc1 (racemic) [Example 65, rac-(6-(N-(4-((Aminoiminomethyl)amino)benzoyl)amino)-3,4-dihydro-2H-1-benzopyran-2-yl)acetic Acid] | 180 nM | 4.8 µM
12 | CCOC(=O)CC1CCc2cc(NC(=O)c3ccc(C(=N)N)cc3F)ccc2O1 (racemic) [Example 69, Ethyl rac-(6-(N-(4-(Aminoiminomethyl)-2-fluorobenzoyl)amino)-3,4-dihydro-2H-1-benzopyran-2-yl)acetate Hydrochloride] | 9 nM | 0.16 µM
13 | N=C(N)c1ccc(C(=O)Nc2ccc3c(c2)CCC(CC(=O)O)O3)c(F)c1 (racemic) [Example 70, rac-(6-(N-(4-(Aminoiminomethyl)-2-fluorobenzoyl)amino)-3,4-dihydro-2H-1-benzopyran-2-yl)acetic Acid] | 1.3 nM | 0.082 µM
14 | CCNC(=N)c1ccc(C(=O)Nc2ccc3c(c2)CCC(CC(=O)OCC)O3)cc1 (racemic) [Example 71, Hydrochloride] | > 10000 nM | 1.5 µM
15 | CCNC(=N)c1ccc(C(=O)Nc2ccc3c(c2)CCC(CC(=O)O)O3)cc1 (racemic) [Example 72, rac-(3,4-Dihydro-6-(N-(4-((ethylamino)iminomethyl)benzoyl)amino)-2H-1-benzopyran-2-yl)acetic Acid] | 18.5 nM | 0.28 µM
16 | CCOC(=O)CC1CCc2cc(NC(=O)c3ccc(C(=N)N(C)C)cc3)ccc2O1 (racemic) [Example 73, Hydrochloride] | > 10000 nM | 1.2 µM
17 | N=C(N)c1ccc(C(=O)Nc2ccc3c(c2)CCC(CC(=O)O)O3)c(Cl)c1 (racemic) [Example 76, rac-(6-(N-(4-(Aminoiminomethyl)-2-chlorobenzoyl)amino)-3,4-dihydro-2H-1-benzopyran-2-yl)acetic Acid] | 14 nM | 0.56 µM
